Holding throughout (type): binding
For one assay, the target named is T1, TYK2 (Homo sapiens, UniProt P29597).
T1 construct: endogenous in cells; host or cells: Molt4 (ATCC CRL-1582) and Ramos (ATCC CRL-1596), mixed lysate 1:2
Nature of the assay: Kinobeads assay, TYK2. The settings on record: mixed Molt4/Ramos lysate, read-out: Inhibition values (IC50) TYK2. The method in brief: (§1)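 Mixed Molt4/Ramos lysate (1:2, 10 mg/mL protein) was incubated 3 h in the cold with the immobilized aminopyrido-pyrimidine affinity matrix and compound, 9-step 1:3 dilutions. Bead-bound kinases were eluted and quantified by antibody dot blot with infrared detection. IC50s are from dose-response curves.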

A further assay concerns the target T2, JAK1 (Homo sapiens, UniProt P23458).
T2 construct: endogenous in cells; host or cells: Molt4 (ATCC CRL-1582) and Ramos (ATCC CRL-1596), mixed lysate 1:2
Nature of the assay: Kinobeads assay, JAK1. To be noted: mixed Molt4/Ramos lysate, read-out: Inhibition values (IC50) JAK1. The method in brief: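 Mixed Molt4/Ramos cell lysate (1:2) was incubated 3 hours in the cold with kinobeads and a 9-step 1:3 compound dilution series. The no-compound control carried 2% DMSO. Bead-bound JAK1 was eluted, detected by antibody dot blot with infrared fluorescence, and IC50 derived from dose-response curves.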

The next assay deals with T3, JAK2 (Homo sapiens, UniProt O60674).
T3 construct: endogenous in cells; host or cells: Molt4 (ATCC CRL-1582) and Ramos (ATCC CRL-1596), mixed lysate 1:2
Nature of the assay: Kinobeads assay, JAK2. The settings on record: mixed Molt4/Ramos lysate, read-out: Inhibition values (IC50) JAK2. Put shortly:
as §1

T1 sequence (P29597 whole entry): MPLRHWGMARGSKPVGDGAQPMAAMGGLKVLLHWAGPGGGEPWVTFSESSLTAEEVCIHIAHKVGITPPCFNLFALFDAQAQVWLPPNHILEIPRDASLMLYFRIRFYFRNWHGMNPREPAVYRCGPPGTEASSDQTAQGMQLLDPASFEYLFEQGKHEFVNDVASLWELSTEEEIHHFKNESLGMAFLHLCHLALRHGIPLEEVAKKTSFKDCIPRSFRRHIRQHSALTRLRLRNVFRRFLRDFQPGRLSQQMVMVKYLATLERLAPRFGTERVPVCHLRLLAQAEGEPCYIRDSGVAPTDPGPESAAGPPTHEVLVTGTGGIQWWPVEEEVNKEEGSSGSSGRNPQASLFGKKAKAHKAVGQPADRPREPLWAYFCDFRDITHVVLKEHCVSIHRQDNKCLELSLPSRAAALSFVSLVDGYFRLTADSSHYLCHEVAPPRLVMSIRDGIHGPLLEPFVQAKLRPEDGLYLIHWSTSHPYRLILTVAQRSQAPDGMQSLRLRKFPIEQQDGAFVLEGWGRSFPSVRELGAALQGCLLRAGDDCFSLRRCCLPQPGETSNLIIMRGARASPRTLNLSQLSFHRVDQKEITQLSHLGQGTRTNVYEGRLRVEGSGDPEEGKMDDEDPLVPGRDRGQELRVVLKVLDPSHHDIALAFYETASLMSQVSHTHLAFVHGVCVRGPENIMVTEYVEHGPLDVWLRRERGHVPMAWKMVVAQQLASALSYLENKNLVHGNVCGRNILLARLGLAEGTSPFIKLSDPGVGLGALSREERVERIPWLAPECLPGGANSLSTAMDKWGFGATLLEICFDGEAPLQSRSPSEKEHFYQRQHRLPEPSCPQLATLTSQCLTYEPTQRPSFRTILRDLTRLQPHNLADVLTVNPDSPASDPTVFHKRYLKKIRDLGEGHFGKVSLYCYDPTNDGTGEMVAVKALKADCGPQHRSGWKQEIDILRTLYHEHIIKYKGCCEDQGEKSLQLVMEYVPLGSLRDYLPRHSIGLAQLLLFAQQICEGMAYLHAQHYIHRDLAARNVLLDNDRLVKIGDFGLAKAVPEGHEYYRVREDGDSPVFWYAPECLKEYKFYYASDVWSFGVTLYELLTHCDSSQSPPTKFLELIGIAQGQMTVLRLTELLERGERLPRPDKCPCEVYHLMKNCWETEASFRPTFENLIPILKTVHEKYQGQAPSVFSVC
T3 sequence (O60674 whole entry): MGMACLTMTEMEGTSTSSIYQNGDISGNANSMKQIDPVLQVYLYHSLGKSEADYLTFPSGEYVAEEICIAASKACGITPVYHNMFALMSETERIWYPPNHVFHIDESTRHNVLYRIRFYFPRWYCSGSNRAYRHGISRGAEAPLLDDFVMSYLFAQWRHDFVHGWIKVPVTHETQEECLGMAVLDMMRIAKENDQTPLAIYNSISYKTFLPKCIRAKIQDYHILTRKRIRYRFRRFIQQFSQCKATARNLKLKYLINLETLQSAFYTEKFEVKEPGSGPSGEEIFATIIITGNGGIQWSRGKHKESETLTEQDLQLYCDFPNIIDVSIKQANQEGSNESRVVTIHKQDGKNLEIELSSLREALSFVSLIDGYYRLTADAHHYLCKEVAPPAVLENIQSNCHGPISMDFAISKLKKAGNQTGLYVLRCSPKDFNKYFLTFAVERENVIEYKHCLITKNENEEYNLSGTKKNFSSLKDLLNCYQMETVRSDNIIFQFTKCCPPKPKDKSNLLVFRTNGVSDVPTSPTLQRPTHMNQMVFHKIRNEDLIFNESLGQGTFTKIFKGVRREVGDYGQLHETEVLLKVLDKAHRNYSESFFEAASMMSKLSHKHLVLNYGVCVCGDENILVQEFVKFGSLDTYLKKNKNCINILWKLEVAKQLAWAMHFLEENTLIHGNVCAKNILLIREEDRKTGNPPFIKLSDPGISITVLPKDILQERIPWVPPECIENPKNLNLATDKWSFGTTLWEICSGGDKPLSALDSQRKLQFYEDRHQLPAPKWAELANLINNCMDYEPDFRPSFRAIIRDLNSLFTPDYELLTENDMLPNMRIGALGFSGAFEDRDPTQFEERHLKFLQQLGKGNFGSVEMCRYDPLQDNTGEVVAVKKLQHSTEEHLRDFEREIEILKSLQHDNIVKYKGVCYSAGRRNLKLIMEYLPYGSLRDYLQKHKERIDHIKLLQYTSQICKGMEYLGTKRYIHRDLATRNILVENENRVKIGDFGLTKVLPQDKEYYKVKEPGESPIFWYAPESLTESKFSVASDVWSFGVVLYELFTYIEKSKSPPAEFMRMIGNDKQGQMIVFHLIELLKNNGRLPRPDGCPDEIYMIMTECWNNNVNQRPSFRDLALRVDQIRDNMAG
T2 sequence (P23458 whole entry): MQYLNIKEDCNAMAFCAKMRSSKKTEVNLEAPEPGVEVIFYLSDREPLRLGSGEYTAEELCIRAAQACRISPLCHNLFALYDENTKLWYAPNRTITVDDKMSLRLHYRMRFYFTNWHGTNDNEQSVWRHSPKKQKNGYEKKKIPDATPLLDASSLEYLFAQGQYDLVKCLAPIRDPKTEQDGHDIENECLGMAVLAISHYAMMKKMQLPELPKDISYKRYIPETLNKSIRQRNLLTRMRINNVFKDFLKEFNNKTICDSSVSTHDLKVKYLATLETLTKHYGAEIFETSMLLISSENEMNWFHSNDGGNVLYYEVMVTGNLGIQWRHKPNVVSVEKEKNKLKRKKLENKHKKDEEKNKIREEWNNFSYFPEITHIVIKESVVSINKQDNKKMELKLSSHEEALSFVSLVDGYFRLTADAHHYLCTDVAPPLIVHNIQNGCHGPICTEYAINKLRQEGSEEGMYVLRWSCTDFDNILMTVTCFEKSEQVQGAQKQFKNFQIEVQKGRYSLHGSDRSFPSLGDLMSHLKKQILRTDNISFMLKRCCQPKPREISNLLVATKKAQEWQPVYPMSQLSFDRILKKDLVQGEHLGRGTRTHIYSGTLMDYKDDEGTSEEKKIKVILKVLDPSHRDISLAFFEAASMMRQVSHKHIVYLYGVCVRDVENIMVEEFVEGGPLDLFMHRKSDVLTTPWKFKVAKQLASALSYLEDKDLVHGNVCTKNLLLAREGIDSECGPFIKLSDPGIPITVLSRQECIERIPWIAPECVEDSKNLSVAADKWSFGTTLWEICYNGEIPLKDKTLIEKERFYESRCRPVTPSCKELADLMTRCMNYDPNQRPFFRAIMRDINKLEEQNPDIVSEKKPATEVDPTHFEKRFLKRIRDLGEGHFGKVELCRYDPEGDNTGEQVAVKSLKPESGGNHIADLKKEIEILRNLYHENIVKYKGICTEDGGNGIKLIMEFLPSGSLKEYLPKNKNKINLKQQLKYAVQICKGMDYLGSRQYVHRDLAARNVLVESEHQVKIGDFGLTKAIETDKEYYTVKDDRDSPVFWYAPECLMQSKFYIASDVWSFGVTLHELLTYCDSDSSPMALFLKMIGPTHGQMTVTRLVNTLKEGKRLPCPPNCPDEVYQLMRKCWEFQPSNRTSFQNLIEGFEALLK

For `CNC(=O)Cn1cc(Nc2ncc(F)c(N[C@H](CO)c3cc(F)cc(-c4cnn(C)c4)c3)n2)cn1` [Compound 157], the results for the 50% inhibitory concentration (IC50) at TYK2, at JAK1 and on JAK2 were no less than 10 µM, 1 to 10 µM and no less than 10 µM, respectively.

Turning to `Cn1cc(Nc2ncc(F)c(N[C@H](CO)c3cc(F)cc(F)c3)n2)cn1` [Compound 158], the IC50 on TYK2, on JAK1 and at JAK2 was 1 to 10 µM throughout.

In the case of `OCCn1cc(Nc2ncc(F)c(N[C@H](CO)c3cc(F)cc(F)c3)n2)cn1` [Compound 159], the IC50 on TYK2 lay in the range of 0.1 to 1 µM; on JAK1 it was 0.1 to 1 µM; at JAK2, 1 to 10 µM.

`NC(=O)Cn1cc(Nc2ncc(F)c(N[C@H](CO)c3cc(F)cc(F)c3)n2)cn1` [Compound 160]: the IC50 was in the range of 0.1 to 1 µM on TYK2, 0.1 to 1 µM at JAK1 and 1 to 10 µM on JAK2.

`CNC(=O)Cn1cc(Nc2ncc(F)c(N[C@H](CO)c3cc(F)cc(F)c3)n2)cn1` [Compound 161]: the IC50 lay in the range of 0.1 to 1 µM at TYK2, 0.1 to 1 µM on JAK1 and 1 to 10 µM on JAK2.

As for `Cn1cc(Nc2ncc(Cl)c(N[C@H](CO)c3cccc(N4CCOCC4=O)c3F)n2)cn1` [Compound 162], the IC50 is no less than 10 µM at TYK2, 1 to 10 µM at JAK1 and no less than 10 µM on JAK2.

As to `Cc1cnc(Nc2cnn(C)c2)nc1N[C@H](CO)c1cc(F)ccc1F` [Compound 163], the IC50 at TYK2, on JAK1 and at JAK2 was 0.1 to 1 µM throughout.

For `Cc1cnc(Nc2cnn(C)c2)nc1N[C@H](CO)c1cc(F)cc(F)c1` [Compound 164], the IC50 at TYK2 was 1 to 10 µM; on JAK1 it was 0.1 to 1 µM; at JAK2, 1 to 10 µM.

Consider `OC[C@@H](Nc1nc(Nc2cnn(CC(F)F)c2)ncc1Cl)c1ccccc1F` [Compound 165], for which the results for the IC50 on TYK2, on JAK1 and on JAK2 were 1 to 10 µM, 0.1 to 1 µM and 1 to 10 µM, respectively.

In the case of `Cc1cnc(Nc2cnn(CC(F)F)c2)nc1N[C@H](CO)c1cc(F)ccc1F` [Compound 166], the figures for the IC50 on TYK2, on JAK1 and on JAK2 were 1 to 10 µM, 0.1 to 1 µM and 1 to 10 µM, respectively.

The values are drawn from US20140179664A1, “Heterocyclyl Pyrimidine Analogues As JAK Inhibitors” (Cellzome Limited, priority 2011, published 2014).
